Data taken from paper PMC6900016, “Synthesis of Indomorphan Pseudo‐Natural Product Inhibitors of Glucose Transporters GLUT‐1 and ‐3” (Angewandte Chemie (International Ed. in English), 2019).

System: HCT116
Assay: cells
Design: 2-deoxyglucose uptake inhibition, semi-automated resazurin/diaphorase fluorescence read-out of 2DG6P
Conditions: Homo sapiens, HCT-116, 0.5 h; 2DG uptake
Description: Resazurin-based 2DG uptake assay (semi-automated high throughput) All buffers, reagents and steps were identical with those described for the manual screening Washing and [compound left out] addition steps were done using an automated cell washer or a multidrop device, respectively. Screening was performed in a 384-well plates. 15,000 HCT116 cells/well seeded into 384-well black-walled, clear bottomed plates (CellBIND, Corning) and incubated overnight. Compounds were added at 30 µM (final concentration for screening or serial dilutions staring from 30 µM for IC50 determinations) from DMSO stocks using the acoustic nanoliter dispenser ECHO 520. Fluorescence intensity was read from the bottom with a SpectraMax Paradigm Multi-Mode Microplate Reader (Molecular devices) using SUPPORTING INFORMATION 259 control (which was set to 100 %) and cells without 2DG (set to 0 %) using Graph Pad Prism 5 or 6 software and IC50 values were determined using a four-parameter fit. The observed difference in the obtained IC50 values for Glupin in the automated screening vs. manually performed assay is most likely attributed to the minituarization that is required for high-troughput screening and usually requires different plate format (384 vs. 96-well plates) and different cell number. In this case, the automated assay was performed in 384-well plates (vs. 96-well plates for the manual assay) with 15,000 cells per well (vs. 40,000 cells per well in the 96-well plates). For kinetic measurements, 15,000 cells were seeded into black CellBIND 384-well plates (Corning) and allowed to attach overnight. Then, the plates were washed 3X with KRB buffer containing 0.1%BSA and treated with different concentrations of 2DG (0-60mM) and Glupin (0-1µM) for 30s to 30min. The uptake was determined using the resazurin/diaphorase system as described above. 2DG uptake was stopped by aspirating the 2DG solution followed by quick wash with ice-cold KRB buffer (0.1 % BSA). Km and Vmax were determined by fitting the data according to Michaelis-Menten using non-linear fitting. The glucose uptake assay monitored the inhibition of 2‐deoxyglucose (2DG) uptake as described by Yamamoto et al.25 Briefly, 2DG uptake is determined by quantification of the 2DG‐6‐phosphate (2DG6P) that accumulates inside the cells by using the diaphorase‐resazurin/‐resorufin system (see Figure S7 a).

SMILES | IC50 [nM]
CCOC(=O)Cn1c2c(c3cc(OC)ccc31)CC1CC2C(OC)CN1C(=O)c1cccnc1SC (racemic) [5aa, (±)-Ethyl 2-(5,10-dimethoxy-3-(2-(methylthio)nicotinoyl)-1,2,3,4,5,6-hexahydro-7H-2,6-methanoazocino[5,4-b]indol-7-yl)acetate] | 4220 ± 3460
CCOC(=O)Cn1c2c(c3cc(C(=O)N4CCOCC4)ccc31)CC1CC2C(OC)CN1C(=O)c1cccnc1SC (racemic) [5ab, (±)-Ethyl 2-(5-methoxy-3-(2-(methylthio)nicotinoyl)-10-(morpholine-4-carbonyl)-1,2,3,4,5,6-hexahydro-7H-2,6-methanoazocino[5,4-b]indol-7-yl)acetate] | > 30000
COC(=O)Cn1c2c(c3ccccc31)CC1CC2C(OC)CN1C(=O)c1cccnc1SC (racemic) [5ad, (±)-methyl 2-(5-methoxy-3-(2-(methylthio)nicotinoyl)-3,4,5,6-tetrahydro-1H-2,6-methanoazocino[5,4-b]indol-7(2H)-yl)acetate] | 89 ± 32
COC1CN(C(=O)c2cccnc2SC)C2Cc3c(n(CC(=O)Oc4ccccc4)c4ccccc34)C1C2 (racemic) [5ae, (±)-phenyl 2-(5-methoxy-3-(2-(methylthio)nicotinoyl)-3,4,5,6-tetrahydro-1H-2,6-methanoazocino[5,4-b]indol-7(2H)-yl)acetate] | 220 ± 80
CCOC(=O)Cn1c2c(c3ccccc31)CC1CC2C(OC)CN1C(=O)c1cccnc1Cl (racemic) [5af, (±)-Ethyl 2-(3-(2-chloronicotinoyl)-5-methoxy-1,2,3,4,5,6-hexahydro-7H-2,6-methanoazocino[5,4-b]indol-7-yl)acetate] | 93 ± 41
CCOC(=O)Cn1c2c(c3ccccc31)CC1CC2C(OC)CN1C(=O)c1cccnc1S(C)(=O)=O (racemic) [5ag, (±)-Ethyl 2-(5-methoxy-3-(2-(methylsulfonyl)nicotinoyl)-1,2,3,4,5,6-hexahydro-7H-2,6-methanoazocino[5,4-b]indol-7-yl)acetate] | 1700 ± 700
CCOC(=O)Cn1c2c(c3ccccc31)CC1CC2C(OC)CN1C(=O)c1cccnc1Sc1ccccc1 (racemic) [5ah, (±)-Ethyl 2-(5-methoxy-3-(2-(phenylthio)nicotinoyl)-1,2,3,4,5,6-hexahydro-7H-2,6-methanoazocino[5,4-b]indol-7-yl)acetate] | 140 ± 70
CCCSc1ncccc1C(=O)N1CC(OC)C2CC1Cc1c2n(CC(=O)OCC)c2ccccc12 (racemic) [5ai, (±)-Ethyl 2-(5-methoxy-3-(2-(propylthio)nicotinoyl)-1,2,3,4,5,6-hexahydro-7H-2,6-methanoazocino[5,4-b]indol-7-yl)acetate] | 190 ± 120
CCOC(=O)Cn1c2c(c3ccccc31)CC1CC2C(OC)CN1C(=O)c1cccnc1Br (racemic) [5aj, (±)-Ethyl 2-(3-(2-bromonicotinoyl)-5-methoxy-1,2,3,4,5,6-hexahydro-7H-2,6-methanoazocino[5,4-b]indol-7-yl)acetate] | 180 ± 60
CCOC(=O)Cn1c2c(c3ccccc31)CC1CC2C(OC)CN1C(=O)c1cccnc1OCC (racemic) [5ak, (±)-Ethyl 2-(3-(2-ethoxynicotinoyl)-5-methoxy-1,2,3,4,5,6-hexahydro-7H-2,6-methanoazocino[5,4-b]indol-7-yl)acetate] | 220 ± 70
CCOC(=O)Cn1c2c(c3ccccc31)CC1CC2C(OC)CN1C(=O)c1cccnc1N1CCOCC1 (racemic) [5al, (±)-Ethyl 2-(5-methoxy-3-(2-morpholinonicotinoyl)-1,2,3,4,5,6-hexahydro-7H-2,6-methanoazocino[5,4-b]indol-7-yl)acetate] | 1400 ± 200
CCOC(=O)Cn1c2c(c3ccccc31)CC1CC2C(OC)CN1C(=O)c1cccnc1NC(=O)C(C)(C)C (racemic) [5am, (±)-Ethyl 2-(5-methoxy-3-(2-pivalamidonicotinoyl)-1,2,3,4,5,6-hexahydro-7H-2,6-methanoazocino[5,4-b]indol-7-yl)acetate] | > 30000
CCOC(=O)Cn1c2c(c3ccccc31)CC1CC2C(OC)CN1C(=O)c1ccncc1 (racemic) [5ao, (±)-Ethyl 2-(3-isonicotinoyl-5-methoxy-1,2,3,4,5,6-hexahydro-7H-2,6-methanoazocino[5,4-b]indol-7-yl)acetate] | 13000 ± 3000
CCOC(=O)Cn1c2c(c3ccccc31)CC1CC2C(OC)CN1C(=O)c1cncnc1 (racemic) [5ap, (±)-Ethyl 2-(5-methoxy-3-(pyrimidine-5-carbonyl)-1,2,3,4,5,6-hexahydro-7H-2,6-methanoazocino[5,4-b]indol-7-yl)acetate] | 14000 ± 5000
CCOC(=O)Cn1c2c(c3ccccc31)CC1CC2C(OC)CN1C(=O)c1cccs1 (racemic) [5aq, (±)-Ethyl 2-(5-methoxy-3-(thiophene-2-carbonyl)-1,2,3,4,5,6-hexahydro-7H-2,6-methanoazocino[5,4-b]indol-7-yl)acetate] | 3000 ± 400
CCOC(=O)Cn1c2c(c3ccccc31)CC1CC2C(OC)CN1C(=O)c1ccc(C)o1 (racemic) [5at, (±)-Ethyl 2-(5-methoxy-3-(5-methylfuran-2-carbonyl)-1,2,3,4,5,6-hexahydro-7H-2,6-methanoazocino[5,4-b]indol-7-yl)acetate] | 8600 ± 4000
CCOC(=O)Cn1c2c(c3ccccc31)CC1CC2C(OC(C)=O)CN1C(=O)c1cccnc1SC (racemic) [5b, (±)-Ethyl 2-(5-acetoxy-3-(2-(methylthio)nicotinoyl)-1,2,3,4,5,6-hexahydro-7H-2,6-methanoazocino[5,4-b]indol-7-yl)acetate] | 53 ± 23
CCOC(=O)Cn1c2c(c3ccccc31)CC1CC2C(O)CN1C(=O)c1cccnc1SC (racemic) [5c, (±)-Ethyl 2-(5-hydroxy-3-(2-(methylthio)nicotinoyl)-1,2,3,4,5,6-hexahydro-7H-2,6-methanoazocino[5,4-b]indol-7-yl)acetate] | 130 ± 50
CCCOC1CN(C(=O)c2cccnc2SC)C2Cc3c(n(CC(=O)OCC)c4ccccc34)C1C2 (racemic) [5d, (±)-Ethyl 2-(3-(2-(methylthio)nicotinoyl)-5-propoxy-1,2,3,4,5,6-hexahydro-7H-2,6-methanoazocino[5,4-b]indol-7-yl)acetate] | 87 ± 15
CCOC(=O)Cn1c2c(c3cc(O)ccc31)CC1CC2C(OC)CN1C(=O)c1cccnc1SC (racemic) [5f, (±)-Ethyl 2-(-10-hydroxy-5-methoxy-3-(2-(methylthio)nicotinoyl)-1,2,3,4,5,6-hexahydro-7H-2,6-methanoazocino[5,4-b]indol-7-yl)acetate] | 100 ± 60
CCOC(=O)Cn1c2c(c3cc(Cl)ccc31)CC1CC2C(OC)CN1C(=O)c1cccnc1SC (racemic) [5g, (±)-Ethyl 2-(10-chloro-5-methoxy-3-(2-(methylthio)nicotinoyl)-1,2,3,4,5,6-hexahydro-7H-2,6-methanoazocino[5,4-b]indol-7-yl)acetate] | 1400 ± 200
CCOC(=O)Cn1c2c(c3cccc(Cl)c31)CC1CC2C(OC)CN1C(=O)c1cccnc1SC (racemic) [5h, (±)-Ethyl 2-(8-chloro-5-methoxy-3-(2-(methylthio)nicotinoyl)-1,2,3,4,5,6-hexahydro-7H-2,6-methanoazocino[5,4-b]indol-7-yl)acetate] | 210 ± 90
COC1CN(C(=O)c2cccnc2SC)C2Cc3c([nH]c4ccccc34)C1C2 (racemic) [5j, (±)-(5-methoxy-1,2,4,5,6,7-hexahydro-3H-2,6-methanoazocino[5,4-b]indol-3-yl)(2-(methylthio)pyridin-3-yl)methanone] | > 30000
COC1CN(C(=O)c2cccnc2SC)C2Cc3c(n(CC(=O)OC(C)(C)C)c4ccccc34)C1C2 (racemic) [5k, (±)-tert-butyl 2-(5-methoxy-3-(2-(methylthio)nicotinoyl)-3,4,5,6-tetrahydro-1H-2,6-methanoazocino[5,4-b]indol-7(2H)-yl)acetate] | 190 ± 60
CCCOC(=O)Cn1c2c(c3ccccc31)CC1CC2C(OC)CN1C(=O)c1cccnc1SC (racemic) [5l, (±)-Propyl 2-(-5-methoxy-3-(2-(methylthio)nicotinoyl)-3,4,5,6-tetrahydro-1H-2,6-methanoazocino[5,4-b]indol-7(2H)-yl)acetate] | 93 ± 35
COC1CN(C(=O)c2cccnc2SC)C2Cc3c(n(CC(=O)O)c4ccccc34)C1C2 (racemic) [5n, (±)-2-(5-methoxy-3-(2-(methylthio)nicotinoyl)-1,2,3,4,5,6-hexahydro-7H-2,6-methanoazocino[5,4-b]indol-7-yl)acetic acid] | 10000 ± 4000
COC1CN(C(=O)c2cccnc2SC)C2Cc3c(n(Cc4ccco4)c4ccccc34)C1C2 (racemic) [5o, (±)-(7-(furan-2-ylmethyl)-5-methoxy-5,6-dihydro-1H-2,6-methanoazocino[5,4-b]indol-3(2H,4H,7H)-yl)(2-(methylthio)pyridin-3-yl)methanone] | 6700 ± 2400
